Legend:
[1] = CBD dosage optimisation and cell toxicity assay (WST-1); assay type: cell-based; conditions: human; HDF cells, 24 hours incubation, WST-1 reagent, CBD up to 25 μg/mL; read-out: CBD concentrations toxic to human fibroblast cells
Description: The following reagents were purchased from ThermoFisher: Human Fibroblast Expansion Basal Medium, Low Serum Growth Supplement (LSGS), EpiLife™ Medium with 60 μM calcium, Human Keratinocyte Growth Supplement (HKGS), Trypsin-EDTA (0.05%), phenol red. Fetal Bovine Serum (French Origin) was purchased from Scientifix. Human skin cells: Fibroblasts (HDF) and Keratinocyte (HEK) cells were purchased from Sigma Aldrich and ThermoFisher respectively. HDF cells were grown in Fibroblast media supplemented with 1×LSGS, while HEK cells were grown in Keratinocyte media supplemented with 1×HKGS. Both cell lines were kept in an incubator at 37° C., with 5% CO2.
The human skin cells (HDF and HEK) were cultured in respective media and were grown in T25 flasks until ~70-80% confluent. Once confluent, the cells were washed with 1×PBS and split using 0.05% Trypsin-EDTA solution. The cell pellet was collected and split into a fresh T25 flask and T75 flask containing full growth media at a dilution factor of 1:4 and incubated at 37° C., 5% CO2. Cells were >85-92% viable based on Trypan blue exclusion when seeding and passing. […]

[2] = HEDS (2-hydroxyethyl disulphide) enzyme assay, NADPH consumption at A340 nm; assay type: biochemical; conditions: coupled with glutathione (GSH) and glutathione reductase (GR); versus buffer control without CLIC
Description: The functional activity of the purified CLIC1, CLIC3 and CLIC4 proteins were analysed using the HEDS assay. The assay measures the ability of the CLIC proteins to reduce the HEDS substrate when coupled with glutathione (GSH) and glutathione reductase (GR) resulting in the consumption of NADPH that is monitored at A340 nm.

Row | Compound | MCC at 24 h [1] [µg/mL] | enzymatic activity: reduction of HEDS substrate, decrease in absorbance at 340 nm (consumption of NADPH) [2]
1 | C=C(C)[C@@H]1CCC(C)=C[C@H]1c1c(O)cc(CCCCC)cc1O [CBD, cannabidiol] | > 4 | 
2 | CLIC4: purified recombinant human chloride intracellular channel protein 4, expressed in E. coli, GST tag cleaved |  | significant enzymatic activity
